16 compounds from PubChem BioAssay (NCI) can be followed below.

“And” between values parts separate entries of the source, which are not always exact repeats. Identical values can stand only once.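 Exposure lasted 48 hours, with cells grown in 96-well plates and compounds tested at five concentrations. GI50: concentration for 50% inhibition of growth. TGI: total growth inhibition.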

The subject of one assay is IGROV1 ovarian. The assay is described as follows: NCI tumour cell line growth inhibition, 48 h.
For `O=C(c1ccc(F)c(F)c1Nc1ccc(I)cc1F)N1CC(O)([C@@H]2CCCCN2)C1`, the GI50 was < 0.0461 µM and 0.125 µM; the TGI is 13.8 µM and > 10 µM.

As to `Oc1cc(O)c2c(c1)OC(c1ccc(O)c(O)c1)C(OC1(c3cc(O)c(O)c(O)c3)Oc3cc(O)cc(O)c3C(O)C1O)C2` (centres undefined), the TGI is > 86.2 µM.

As to `CCOc1ccc2nc(S/C(=C/C=C(C#N)C#N)c3ccc(C)cc3)sc2c1`, the GI50 is 54.5 µM and the TGI is > 100 µM.

In the case of `COc1cc(CNCCCN2C(=O)c3ccc4c5c(ccc(c35)C2=O)C(=O)N(CCCNCc2cc(OC)c(OC)c(OC)c2)C4=O)cc(OC)c1OC`, the GI50 is 0.24 µM and the TGI turned out to be 1.06 µM.

Regarding `O=c1[nH]c(=O)n(C2CC(O)C(CO)O2)cc1CO` (centres undefined), the GI50 is > 100 µM and the TGI was > 100 µM.

As to `Cc1nc2cnc(N)c(C#Cc3cncc(C(=O)Nc4ccc(CN5CCN(C)CC5)c(C(F)(F)F)c4)c3)c2nc1C`, the GI50 is 0.266 µM and the TGI came to 1.21 µM.

Consider `CC(=O)OC12c3ccccc3-c3ccccc3C1C1C(=O)N(C)C(=O)C12Cl` (centres undefined), for which the TGI was > 10 µM.

For the compound `CS(=O)(=O)CCCn1c(=O)c(Oc2ccc(F)cc2F)cc2cnc(NC3CCOCC3)nc21`, the GI50 is > 25 µM and the TGI was > 25 µM.

`N#C/C=C(\c1ccc([N+](=O)[O-])cc1)n1nnc2cc(Cl)c(Cl)cc21`: the GI50 is 1.82 µM and the TGI is 4.08 µM.

As for `CCN(CC)CCOc1ccc(/C=C2\CC3C4CC=C5C[C@@H](O)CC[C@]5(C)C4CC[C@]3(C)C2=O)cc1OC` (some centres undefined), the GI50 is 2.94 µM and the TGI stood at 7.72 µM.

For `O=C(CC(O)(C(F)(F)F)C(F)(F)F)c1cc(CC(=O)C(O)(C(F)(F)F)C(F)(F)F)cc(CC(=O)C(O)(C(F)(F)F)C(F)(F)F)c1`, the TGI was determined as 4.15 µM.

On to `O=c1c2ccccc2sc2cccc(NCCCN3CCN(CCCNc4cccc5sc6ccccc6c(=O)c45)CC3)c12`, for which the TGI was > 100 µM.

Turning to `Cc1cn2c(/C=C3\C(=O)Nc4ccc(O)cc43)c(-c3ccc(Cl)cc3)nc2s1`, the GI50 is 5.56 µM and the TGI worked out at 23.9 µM.

Consider `CC1(C)OCCn2c1nc1c(N3CCOCC3)nc(-c3cnc(N)nc3)nc12`, for which the GI50 is 0.0622 µM and the TGI was 0.432 µM.

As for `O=C(c1c(F)ccc(NS(=O)(=O)N2CC[C@@H](F)C2)c1F)c1c[nH]c2ncc(-c3cnc(C4CC4)nc3)cc12`, the GI50 was 2.35 µM and 2.14 µM; the TGI was > 10 µM and 17 µM.

Consider `COc1cc(-c2nn(-c3cccc(NC(=O)Nc4ccc(Cl)c(Cl)c4)c3)cc2-c2ccncc2)ccc1Cl`, for which the GI50 is 1.18 µM and the TGI turned out to be 3.48 µM.

Another assay deals with HT29 colon. Kind of assay: NCI tumour cell line growth inhibition, 48 h.
Consider `O=C(c1ccc(F)c(F)c1Nc1ccc(I)cc1F)N1CC(O)([C@@H]2CCCCN2)C1`, for which the GI50 is < 0.01 µM and 0.00367 µM; the TGI is 11 µM and > 10 µM.

In the case of `Oc1cc(O)c2c(c1)OC(c1ccc(O)c(O)c1)C(OC1(c3cc(O)c(O)c(O)c3)Oc3cc(O)cc(O)c3C(O)C1O)C2` (centres undefined), the TGI came to 41 µM.

Consider `CCOc1ccc2nc(S/C(=C/C=C(C#N)C#N)c3ccc(C)cc3)sc2c1`, for which the GI50 is 4.71 µM and the TGI was > 100 µM.

Consider `COc1cc(CNCCCN2C(=O)c3ccc4c5c(ccc(c35)C2=O)C(=O)N(CCCNCc2cc(OC)c(OC)c(OC)c2)C4=O)cc(OC)c1OC`, for which the GI50 is 0.163 µM and the TGI was determined as 0.933 µM.

Regarding `O=c1[nH]c(=O)n(C2CC(O)C(CO)O2)cc1CO` (centres undefined), the GI50 was > 100 µM and the TGI is > 100 µM.

For `Cc1nc2cnc(N)c(C#Cc3cncc(C(=O)Nc4ccc(CN5CCN(C)CC5)c(C(F)(F)F)c4)c3)c2nc1C`, the GI50 was 0.0456 µM and the TGI stood at 2.72 µM.

Consider `CC(=O)OC12c3ccccc3-c3ccccc3C1C1C(=O)N(C)C(=O)C12Cl` (centres undefined), for which the TGI was > 10 µM.

On to `CS(=O)(=O)CCCn1c(=O)c(Oc2ccc(F)cc2F)cc2cnc(NC3CCOCC3)nc21`, for which the GI50 was > 25 µM and the TGI was > 25 µM.

Turning to `N#C/C=C(\c1ccc([N+](=O)[O-])cc1)n1nnc2cc(Cl)c(Cl)cc21`, the GI50 was 2.05 µM and the TGI came out at 4.23 µM.

For `CCN(CC)CCOc1ccc(/C=C2\CC3C4CC=C5C[C@@H](O)CC[C@]5(C)C4CC[C@]3(C)C2=O)cc1OC` (some centres undefined), the GI50 was 2.29 µM and the TGI is > 100 µM.

Take `O=C(CC(O)(C(F)(F)F)C(F)(F)F)c1cc(CC(=O)C(O)(C(F)(F)F)C(F)(F)F)cc(CC(=O)C(O)(C(F)(F)F)C(F)(F)F)c1`: the TGI was determined as 4.28 µM.

Consider `O=c1c2ccccc2sc2cccc(NCCCN3CCN(CCCNc4cccc5sc6ccccc6c(=O)c45)CC3)c12`, for which the TGI is > 100 µM.

Turning to `Cc1cn2c(/C=C3\C(=O)Nc4ccc(O)cc43)c(-c3ccc(Cl)cc3)nc2s1`, the GI50 is 18.1 µM and the TGI was 56.2 µM.

As for `CC1(C)OCCn2c1nc1c(N3CCOCC3)nc(-c3cnc(N)nc3)nc12`, the GI50 is 0.23 µM and the TGI was > 100 µM.

As to `O=C(c1c(F)ccc(NS(=O)(=O)N2CC[C@@H](F)C2)c1F)c1c[nH]c2ncc(-c3cnc(C4CC4)nc3)cc12`, the GI50 is 0.0124 µM and 0.0118 µM; the TGI was > 10 µM and 12.4 µM.

In the case of `COc1cc(-c2nn(-c3cccc(NC(=O)Nc4ccc(Cl)c(Cl)c4)c3)cc2-c2ccncc2)ccc1Cl`, the GI50 was 1.24 µM and the TGI was 6.46 µM.

A further assay concerns KM12 colon. The assay is described as follows: NCI tumour cell line growth inhibition, 48 h.
With `O=C(c1ccc(F)c(F)c1Nc1ccc(I)cc1F)N1CC(O)([C@@H]2CCCCN2)C1`, the GI50 was < 0.0376 µM and 0.28 µM; the TGI was 13.2 µM and > 10 µM.

As for `Oc1cc(O)c2c(c1)OC(c1ccc(O)c(O)c1)C(OC1(c3cc(O)c(O)c(O)c3)Oc3cc(O)cc(O)c3C(O)C1O)C2` (centres undefined), the TGI was > 70.9 µM.

With `CCOc1ccc2nc(S/C(=C/C=C(C#N)C#N)c3ccc(C)cc3)sc2c1`, the GI50 is 35.9 µM and the TGI was > 100 µM.

As to `COc1cc(CNCCCN2C(=O)c3ccc4c5c(ccc(c35)C2=O)C(=O)N(CCCNCc2cc(OC)c(OC)c(OC)c2)C4=O)cc(OC)c1OC`, the GI50 is 0.238 µM and the TGI worked out at 0.834 µM.

For the compound `O=c1[nH]c(=O)n(C2CC(O)C(CO)O2)cc1CO` (centres undefined), the GI50 was > 100 µM and the TGI was > 100 µM.

Consider `Cc1nc2cnc(N)c(C#Cc3cncc(C(=O)Nc4ccc(CN5CCN(C)CC5)c(C(F)(F)F)c4)c3)c2nc1C`, for which the TGI turned out to be 1.44 µM.

With `CC(=O)OC12c3ccccc3-c3ccccc3C1C1C(=O)N(C)C(=O)C12Cl` (centres undefined), the TGI is > 10 µM.

As for `CS(=O)(=O)CCCn1c(=O)c(Oc2ccc(F)cc2F)cc2cnc(NC3CCOCC3)nc21`, the GI50 was > 25 µM and the TGI was > 25 µM.
